# From paper PMC4809600, “The Influence of Chronic Wound Extracts on Inflammatory Cytokine and Histatin Stability” (PLoS ONE, 2016)
# Like-named read-outs stand apart in the source and are kept apart here. Where no end group is shown, it is not given here.
# Test: Dose response of Hst1 and PIC in the presence of CWE
# Assay type: in vitro ADME, human
# Conditions: CWE 1 mg/ml, 37°C, CZE, 0 h = 100%
# Experimental: For the dose response of PIC and Hst1, three different concentrations of Hst1 were prepared (0.5 mg/ml, 1 mg/ml and 2 mg/ml) and two different concentrations of PIC were used. The final PIC concentration in the CWE (1 mg/ml) sample was 1:140 v/v (same as above) or 1:280 v/v (2x diluted). Mixtures were incubated at 37°C and samples were taken at 0, 24 and 96 h.
# The samples were analyzed with a BioFocus 2000 capillary zone electrophoresis system (Bio-Rad Laboratories, Hercules, CA, USA) equipped with an uncoated fused-silica capillary of internal diameter 50 μm and a length of 24 cm. Samples were loaded by pressure injection (5 psi/sec). Separation was performed at 10 kV (cathode at the detector side) at 20°C using 0.1 M phosphate buffer (pH 2.5) as electrolyte and monitored continuously at 200 nm. Peaks were quantified with the BioFocus Integrator software. In order to quantify the percentage of intact peptides remaining after incubation with CWE, the ratios of histatins, rhIL-6 or rhCXCL8 to internal standard was set at 100% at 0h, and the ratios at the other incubation time points were related to this.
sequence,measurement,setting,value
DSHEKRHHGYRRKFHEKHHSHREFPFYGDYGSNYLYDN [Hst1],"Intact Hst1, CWE + PIC 1:140 24h","Hst1 0.5 mg/ml, PIC:CWE 1:140 v/v, 24 h, experiment 1 of 3",73.4639%
same,"Intact Hst1, CWE + PIC 1:140 24h","Hst1 0.5 mg/ml, PIC:CWE 1:140 v/v, 24 h, experiment 2 of 3",69.7277%
same,"Intact Hst1, CWE + PIC 1:140 24h","Hst1 0.5 mg/ml, PIC:CWE 1:140 v/v, 24 h, experiment 3 of 3",63.6084%
same,"Intact Hst1, CWE + PIC 1:140 96h","Hst1 0.5 mg/ml, PIC:CWE 1:140 v/v, experiment 1 of 3",54.3382%
same,"Intact Hst1, CWE + PIC 1:140 96h","Hst1 0.5 mg/ml, PIC:CWE 1:140 v/v, experiment 2 of 3",46.1353%
same,"Intact Hst1, CWE + PIC 1:280 24h","Hst1 0.5 mg/ml, PIC:CWE 1:280 v/v, 24 h, experiment 1 of 3",49.1645%
same,"Intact Hst1, CWE + PIC 1:280 24h","Hst1 0.5 mg/ml, PIC:CWE 1:280 v/v, 24 h, experiment 2 of 3",30.5445%
same,"Intact Hst1, CWE + PIC 1:280 96h","Hst1 0.5 mg/ml, PIC:CWE 1:280 v/v, experiment 1 of 3",24.1883%
same,"Intact Hst1, CWE + PIC 1:280 96h","Hst1 0.5 mg/ml, PIC:CWE 1:280 v/v, experiment 2 of 3",18.189%
same,"Intact Hst1, CWE + PIC 1:140 24h","Hst1 1 mg/ml, PIC:CWE 1:140 v/v, 24 h, experiment 3 of 3",58.7589%
same,"Intact Hst1, CWE + PIC 1:140 96h","Hst1 1 mg/ml, PIC:CWE 1:140 v/v, experiment 3 of 3",38.9986%
same,"Intact Hst1, CWE + PIC 1:280 24h","Hst1 1 mg/ml, PIC:CWE 1:280 v/v, 24 h, experiment 3 of 3",38.2658%
same,"Intact Hst1, CWE + PIC 1:280 96h","Hst1 1 mg/ml, PIC:CWE 1:280 v/v, experiment 3 of 3",25.9997%
same,"Intact Hst1, CWE + PIC 1:140 24h","Hst1 2 mg/ml, PIC:CWE 1:140 v/v, 24 h, experiment 1 of 3",77.6287%
same,"Intact Hst1, CWE + PIC 1:140 24h","Hst1 2 mg/ml, PIC:CWE 1:140 v/v, 24 h, experiment 2 of 3",76.5019%
same,"Intact Hst1, CWE + PIC 1:140 24h","Hst1 2 mg/ml, PIC:CWE 1:140 v/v, 24 h, experiment 3 of 3",68.9738%
same,"Intact Hst1, CWE + PIC 1:140 96h","Hst1 2 mg/ml, PIC:CWE 1:140 v/v, experiment 1 of 3",61.2993%
same,"Intact Hst1, CWE + PIC 1:140 96h","Hst1 2 mg/ml, PIC:CWE 1:140 v/v, experiment 2 of 3",47.6383%
same,"Intact Hst1, CWE + PIC 1:140 96h","Hst1 2 mg/ml, PIC:CWE 1:140 v/v, experiment 3 of 3",45.7764%
same,"Intact Hst1, CWE + PIC 1:280 24h","Hst1 2 mg/ml, PIC:CWE 1:280 v/v, 24 h, experiment 1 of 3",61.8953%
same,"Intact Hst1, CWE + PIC 1:280 24h","Hst1 2 mg/ml, PIC:CWE 1:280 v/v, 24 h, experiment 2 of 3",55.6946%
same,"Intact Hst1, CWE + PIC 1:280 24h","Hst1 2 mg/ml, PIC:CWE 1:280 v/v, 24 h, experiment 3 of 3",47.0948%
same,"Intact Hst1, CWE + PIC 1:280 96h","Hst1 2 mg/ml, PIC:CWE 1:280 v/v, experiment 1 of 3",42.3498%
same,"Intact Hst1, CWE + PIC 1:280 96h","Hst1 2 mg/ml, PIC:CWE 1:280 v/v, experiment 2 of 3",34.4262%
same,"Intact Hst1, CWE + PIC 1:280 96h","Hst1 2 mg/ml, PIC:CWE 1:280 v/v, experiment 3 of 3",43.3131%
same,"remaining at 96 h, 0.5 mg/ml","human, chronic wound extracts (CWE), with protease inhibitor cocktail (PIC), PIC:CWE 1:140 v/v, Hst1 0.5 mg/ml, PIC:CWE 1:140 v/v, experiment 3 of 3, read-out: Intact Hst1, CWE + PIC 1:140 96h",37.5%
same,"remaining at 24 h, 1 mg/ml","human, chronic wound extracts (CWE), with protease inhibitor cocktail (PIC), PIC:CWE 1:140 v/v, Hst1 1 mg/ml, PIC:CWE 1:140 v/v, 24 h, experiment 1 of 3, read-out: Intact Hst1, CWE + PIC 1:140 24h",76.2%
same,"remaining at 24 h, 1 mg/ml","human, chronic wound extracts (CWE), with protease inhibitor cocktail (PIC), PIC:CWE 1:140 v/v, Hst1 1 mg/ml, PIC:CWE 1:140 v/v, 24 h, experiment 2 of 3, read-out: Intact Hst1, CWE + PIC 1:140 24h",67%
same,"remaining at 96 h, 1 mg/ml","human, chronic wound extracts (CWE), with protease inhibitor cocktail (PIC), PIC:CWE 1:140 v/v, Hst1 1 mg/ml, PIC:CWE 1:140 v/v, experiment 1 of 3, read-out: Intact Hst1, CWE + PIC 1:140 96h",53.2%
same,"remaining at 96 h, 1 mg/ml","human, chronic wound extracts (CWE), with protease inhibitor cocktail (PIC), PIC:CWE 1:140 v/v, Hst1 1 mg/ml, PIC:CWE 1:140 v/v, experiment 2 of 3, read-out: Intact Hst1, CWE + PIC 1:140 96h",43.5%
same,"remaining at 24 h, 0.5 mg/ml","human, chronic wound extracts (CWE), with protease inhibitor cocktail (PIC), PIC:CWE 1:280 v/v, Hst1 0.5 mg/ml, PIC:CWE 1:280 v/v, 24 h, experiment 3 of 3, read-out: Intact Hst1, CWE + PIC 1:280 24h",34.4%
same,"remaining at 96 h, 0.5 mg/ml","human, chronic wound extracts (CWE), with protease inhibitor cocktail (PIC), PIC:CWE 1:280 v/v, Hst1 0.5 mg/ml, PIC:CWE 1:280 v/v, experiment 3 of 3, read-out: Intact Hst1, CWE + PIC 1:280 96h",20.3%
same,"remaining at 24 h, 1 mg/ml","human, chronic wound extracts (CWE), with protease inhibitor cocktail (PIC), PIC:CWE 1:280 v/v, Hst1 1 mg/ml, PIC:CWE 1:280 v/v, 24 h, experiment 1 of 3, read-out: Intact Hst1, CWE + PIC 1:280 24h",60.2%
same,"remaining at 24 h, 1 mg/ml","human, chronic wound extracts (CWE), with protease inhibitor cocktail (PIC), PIC:CWE 1:280 v/v, Hst1 1 mg/ml, PIC:CWE 1:280 v/v, 24 h, experiment 2 of 3, read-out: Intact Hst1, CWE + PIC 1:280 24h",51.5%
same,"remaining at 96 h, 1 mg/ml","human, chronic wound extracts (CWE), with protease inhibitor cocktail (PIC), PIC:CWE 1:280 v/v, Hst1 1 mg/ml, PIC:CWE 1:280 v/v, experiment 1 of 3, read-out: Intact Hst1, CWE + PIC 1:280 96h",37%
same,"remaining at 96 h, 1 mg/ml","human, chronic wound extracts (CWE), with protease inhibitor cocktail (PIC), PIC:CWE 1:280 v/v, Hst1 1 mg/ml, PIC:CWE 1:280 v/v, experiment 2 of 3, read-out: Intact Hst1, CWE + PIC 1:280 96h",41.5%
